In the supplement of paper PMC8612539:

Key:
Enterococcus spp. = assay: minimum inhibitory concentration (MIC)
Experimental: (§1)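 Broth microdilution MIC (Sensititre BOPO7F bovine plate, CLSI methods) of 19 antimicrobials against field isolates of P. multocida, M. haemolytica, H. somni (deep nasopharyngeal swabs) and E. coli, Enterococcus spp. (rectal swabs) from weaned dairy heifers. Incubation 16-24 h at 35 C. MIC is the lowest concentration preventing visible growth. Values with <= or > lie at the tested range limits. Trimethoprim-sulfamethoxazole is given as the trimethoprim component of a 1:19 mixture.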

Mannheimia haemolytica = assay: minimum inhibitory concentration (MIC)
Experimental: as §1

COc1cc(NS(=O)(=O)c2ccc(N)cc2)nc(OC)n1 [sulfadimethoxine]
minimum inhibitory concentration [mg/L]
Settings | Enterococcus spp. | Mannheimia haemolytica
isolate (source animal id): 2 | > 256 | –
isolate (source animal id): 8 | – | > 256
isolate (source animal id): 13 | – | > 256
isolate (source animal id): 18 | – | > 256
isolate (source animal id): 21 | – | > 256
isolate (source animal id): 25 | – | > 256
isolate (source animal id): 27 | – | > 256
isolate (source animal id): 28 | – | ≤ 256
isolate (source animal id): 30 | – | > 256
isolate (source animal id): 31 | – | ≤ 256
isolate (source animal id): 32 | – | > 256
isolate (source animal id): 34 | – | > 256
isolate (source animal id): 35 | > 256 | –
isolate (source animal id): 36 | – | > 256
isolate (source animal id): 37 | – | > 256
isolate (source animal id): 40 | – | > 256
isolate (source animal id): 41 | – | > 256
isolate (source animal id): 42 | > 256 | –
isolate (source animal id): 43 | – | > 256
isolate (source animal id): 44 | > 256 | –
isolate (source animal id): 46 | – | > 256
isolate (source animal id): 49 | – | > 256
isolate (source animal id): 50 | – | > 256
isolate (source animal id): 51 | – | > 256
isolate (source animal id): 52 | – | > 256
isolate (source animal id): 53 | – | > 256
isolate (source animal id): 55 | – | > 256
isolate (source animal id): 56 | – | > 256
isolate (source animal id): 57 | – | > 256
isolate (source animal id): 79 | > 256 | –
isolate (source animal id): 88 | > 256 | –
isolate (source animal id): 91 | > 256 | –
isolate (source animal id): 92 | > 256 | –
isolate (source animal id): 100 | – | > 256
isolate (source animal id): 103 | – | > 256
isolate (source animal id): 107 | – | > 256
isolate (source animal id): 108 | – | > 256
isolate (source animal id): 111 | > 256 | –
isolate (source animal id): 112 | – | > 256
isolate (source animal id): 113 | – | > 256
isolate (source animal id): 121 | – | > 256
isolate (source animal id): 122 | > 256 | > 256
isolate (source animal id): 123 | > 256 | > 256
isolate (source animal id): 126 | – | > 256
isolate (source animal id): 133 | > 256 | > 256
isolate (source animal id): 135 | – | > 256
isolate (source animal id): 138 | – | > 256
isolate (source animal id): 141 | – | > 256
isolate (source animal id): 142 | – | > 256
isolate (source animal id): 145 | – | > 256
isolate (source animal id): 149 | – | ≤ 256
isolate (source animal id): 151 | – | ≤ 256
isolate (source animal id): 152 | – | ≤ 256
isolate (source animal id): 154 | – | ≤ 256
isolate (source animal id): 158 | > 256 | –
isolate (source animal id): 159 | – | > 256
isolate (source animal id): 162 | – | > 256
isolate (source animal id): 168 | > 256 | –
isolate (source animal id): 169 | > 256 | –
isolate (source animal id): 170 | – | > 256
isolate (source animal id): 171 | > 256 | > 256
isolate (source animal id): 172 | – | > 256
isolate (source animal id): 173 | – | > 256
isolate (source animal id): 175 | > 256 | –
isolate (source animal id): 177 | > 256 | –
isolate (source animal id): 179 | – | > 256
isolate (source animal id): 180 | – | > 256
isolate (source animal id): 181 | > 256 | –
isolate (source animal id): 182 | > 256 | –
isolate (source animal id): 183 | > 256 | > 256
isolate (source animal id): 186 | – | > 256
isolate (source animal id): 187 | > 256 | > 256
isolate (source animal id): 188 | – | > 256
isolate (source animal id): 190 | > 256 | > 256
isolate (source animal id): 191 | – | > 256
isolate (source animal id): 192 | – | > 256
isolate (source animal id): 194 | > 256 | –
isolate (source animal id): 195 | > 256 | –
isolate (source animal id): 197 | > 256 | –
isolate (source animal id): 201 | – | > 256
isolate (source animal id): 202 | – | > 256
isolate (source animal id): 209 | – | > 256
isolate (source animal id): 211 | > 256 | ≤ 256
isolate (source animal id): 214 | > 256 | –
isolate (source animal id): 220 | – | > 256
isolate (source animal id): 221 | – | > 256
isolate (source animal id): 222 | > 256 | –
isolate (source animal id): 223 | > 256 | > 256
isolate (source animal id): 228 | > 256 | –
isolate (source animal id): 230 | > 256 | –
isolate (source animal id): 233 | – | > 256
isolate (source animal id): 235 | > 256 | –
isolate (source animal id): 236 | > 256 | –
isolate (source animal id): 237 | – | ≤ 256
isolate (source animal id): 239 | > 256 | –
isolate (source animal id): 241 | > 256 | > 256
isolate (source animal id): 244 | > 256 | –
isolate (source animal id): 246 | > 256 | –
isolate (source animal id): 247 | > 256 | –
isolate (source animal id): 250 | > 256 | –
isolate (source animal id): 252 | > 256 | > 256
isolate (source animal id): 253 | – | > 256
isolate (source animal id): 259 | – | > 256
isolate (source animal id): 260 | – | > 256
isolate (source animal id): 262 | – | > 256
isolate (source animal id): 268 | > 256 | –
isolate (source animal id): 282 | > 256 | > 256
isolate (source animal id): 285 | > 256 | –
isolate (source animal id): 287 | – | > 256
isolate (source animal id): 288 | – | > 256
isolate (source animal id): 289 | > 256 | –
isolate (source animal id): 290 | > 256 | –
isolate (source animal id): 291 | – | ≤ 256
isolate (source animal id): 293 | – | > 256
isolate (source animal id): 296 | > 256 | –
isolate (source animal id): 298 | > 256 | > 256
isolate (source animal id): 299 | – | > 256
isolate (source animal id): 300 | – | ≤ 256
isolate (source animal id): 301 | > 256 | –
isolate (source animal id): 302 | – | > 256
isolate (source animal id): 304 | – | > 256
isolate (source animal id): 306 | – | > 256
isolate (source animal id): 308 | – | ≤ 256
isolate (source animal id): 309 | – | ≤ 256
isolate (source animal id): 310 | > 256 | –
isolate (source animal id): 313 | – | > 256
isolate (source animal id): 318 | – | > 256
isolate (source animal id): 320 | > 256 | ≤ 256
isolate (source animal id): 321 | – | > 256
isolate (source animal id): 323 | – | > 256
isolate (source animal id): 324 | – | > 256
isolate (source animal id): 326 | – | > 256
isolate (source animal id): 328 | – | > 256
isolate (source animal id): 329 | – | > 256
isolate (source animal id): 331 | > 256 | –
isolate (source animal id): 333 | > 256 | > 256
isolate (source animal id): 335 | – | > 256
isolate (source animal id): 338 | – | > 256
isolate (source animal id): 341 | > 256 | –
